# Experimental data reported in publication PMC3769177 (Bioorganic & medicinal chemistry letters, 2013).
# System: RD (embryonal) rhabdomyosarcoma cell line
# Experiment: CellTiter-Glo Luminescent Cell Viability Assay, RD cells
# Assay type: cell-based
# Conditions: 48 hours
smiles,measurement,value
CN1CCN(CCOc2cc(OC3CCOCC3)c3c(Nc4c(Cl)ccc5c4OCO5)ncnc3c2)CC1 [Saracatinib],"IC50[RD], inhibition of cell survival",did not reach the IC50
